In patent publication US9550811B2, “Peptide scaffold design” (BIONOR IMMUNO AS, priority 2010, dated 2017):
Several values for one entry are separate records, joined by “and”; a condition that tells them apart may be missing. Equal values may be shown once.

Experiments:
[1] = system: DC-cells; assay: Cell penetration assay: staining for biotinylated peptides, dendritic cells gated as CD11c+; type: cell-based, human; conditions: low concentration of peptides (208 uM)
How it was run: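 Human PBMCs from one donor incubated 2 h at 37 °C with N- or C-terminally biotinylated peptides (5, 2.5, 1.25 mM; concentrations as added), then trypsinized, fixed/permeabilized and stained with streptavidin-APC and anti-CD11c. Flow cytometry GeoMean of peptide fluorescence in total cells and CD11c+ dendritic cells.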

[2] = system: PBMC samples from HCV patients; assay: Human IFN-gamma cytotoxic T-cell (CTL) response by ELISPOT assay; type: cell-based; conditions: listed as 310-42b
Description: Human IFN-Gamma Cytotoxic T-Cell (CTL) Response by ELISPOT Assay
Briefly, at day 1, PBMC samples from HCV patients were incubated in flasks (430 000 PBMCs/cm2) for 2 h at 37° C., 5% CO2 in covering amount of culture media (RPMI 1640 Fisher Scientific; Cat No. PAAE15-039 supplemented with L-Glutamine, (MedProbe Cat. No. 13E17-605E, 10% Foetal Bovine serum (FBS), Fisher Scientific Cat. No. A15-101) and Penicillin/Streptomycin, (Fisher Acientific Cat. No. P11-010) in order to allow adherence of monocytes. Non-adherent cells were isolated, washed, and frozen in 10% V/V DMSO in FBS until further usage. Adherent cells were carefully washed with culture media, followed by incubation at 37° C. until day 3 in culture media containing 2 μg/ml final concentration of hrGM-CSF (Xiamen amoytop biotech co, cat no: 3004.9090.90) & 1 μg/ml hrIL-4 (Invitrogen, Cat no: PHC0043), and this procedure was then repeated at day 6. At day 7, cultured dendritic cells (5 000-10 000 per well) were added to ELISPOT (Millipore multiscreen HTS) plates coated with 0.5 μg/well anti-human γ Interferon together with thawed autologous non-adherent cells (200 000 per well), antigen samples (1-8 ug/ml final concentration for peptide antigens; 5 ug/ml final concentration for Concanavalin A (Sigma, Cat no: C7275) or PHA (Sigma, Cat no: L2769)) & anti-Anergy antibodies (0.03-0.05 ug/ml final concentration for both anti-PD-1 (eBioscience, cat no: 16-9989-82) & anti-PD-L1 (eBioscience, cat no: 16-5983-82)). Plates were incubated overnight and spots were developed according to manufacturer. Spots were read on ELISPOT reader (CTL-ImmunoSpot® S5 UV Analyzer).

RRSRNLGKVIDTLTCBRLMGYIPLVGA [42b]
Results on DC-cells (geomean peptide-fluorescence) ([1]; BC 16): 61968
Results on DC-cells (geomean peptide-fluorescence) ([1]; BC43): 19181
IFN-g ELISPOT (T-cell spots) ([2]; Patient A (HCV patient)): 90 and 115
IFN-g ELISPOT (T-cell spots) ([2]; Patient B (HCV patient)): 60 and 80
IFN-g ELISPOT (T-cell spots) ([2]; Patient D (HCV patient)): 13 and 11
